Test results taken from PMC12895000, “Structural and computational supported development of 2,5-disubstituted-1,3,4-oxadiazole analogues as active LOX, urease, and α-glucosidase inhibitors” (Scientific Reports, 2026).

Target: α-glucosidase (Saccharomyces cerevisiae, UniProt P53341)
Assay type: biochemical
Protocol: Inspection of α-glucosidase inhibition was made by using protocol mentioned in literature. 10 µl (0.057 units) of purified enzyme, 10 µl (0.5 mM) of the test compound and 70 µl (50 mM) of sodium phosphate buffer (pH = 6.8) were collected in a 96-well plate. Pre-incubation for 10 min at 37 °C was performed. Pre-reading was done at 400 nm. 10 µl (0.5 mM) of p-nitrophenyl glucopyranoside were added as a substrate. […] The collection of all data was made thrice. The formula given above allowed to calculate % of inhibition.

α-glucosidase, sequence (P53341 whole entry): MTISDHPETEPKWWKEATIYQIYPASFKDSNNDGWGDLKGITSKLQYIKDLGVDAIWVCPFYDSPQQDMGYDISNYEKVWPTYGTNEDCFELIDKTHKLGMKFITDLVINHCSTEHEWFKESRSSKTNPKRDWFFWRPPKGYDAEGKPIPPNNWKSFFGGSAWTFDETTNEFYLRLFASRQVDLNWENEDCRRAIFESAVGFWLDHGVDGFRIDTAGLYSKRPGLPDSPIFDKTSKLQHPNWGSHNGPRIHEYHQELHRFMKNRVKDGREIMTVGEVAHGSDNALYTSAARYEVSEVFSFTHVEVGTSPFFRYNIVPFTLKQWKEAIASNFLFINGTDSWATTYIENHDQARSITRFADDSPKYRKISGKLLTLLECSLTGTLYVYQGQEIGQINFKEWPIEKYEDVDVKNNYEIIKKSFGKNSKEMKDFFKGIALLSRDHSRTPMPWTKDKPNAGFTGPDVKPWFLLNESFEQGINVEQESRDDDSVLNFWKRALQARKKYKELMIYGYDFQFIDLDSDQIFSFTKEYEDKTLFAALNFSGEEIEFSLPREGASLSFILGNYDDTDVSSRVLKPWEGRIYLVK

For C[C@H]1O[C@H](O[C@H]2[C@H](O)[C@@H](O)[C@@H](O[C@H]3[C@H](O)[C@@H](O)C(O)O[C@@H]3CO)O[C@@H]2CO)[C@H](O)[C@@H](O)[C@@H]1N[C@H]1C=C(CO)[C@@H](O)[C@H](O)[C@H]1O (stereo partly shown) [Acarbose], the “α-Glucosidase Inhibition (%) at 0.5 Mm” value was 65.73 ± 1.93%.
